Reference: article PMC8530378, “Comparison of: (2S,4R)-4-[^18F]Fluoroglutamine, [^11C]Methionine, and 2-Deoxy-2-[^18F]Fluoro-D-Glucose and Two Small-Animal PET/CT Systems Imaging Rat Gliomas” (Frontiers in Oncology, 2021)

Columns and labels:
BT4C gliomas = assay: Ex vivo brain autoradiography, tumor-to-healthy brain uptake ratio; format: in vivo; conditions: ex vivo autoradiography of brain slices, BT4C glioma-bearing BDIX rats
Protocol: Ex vivo biodistribution studies were performed for [^18F]FGln with a complete organ list and results are listed in the Supplementary Material Some subjects from each radiopharmaceutical imaging group were sacrificed for autoradiographical and histological studies immediately after PET imaging. All autoradiography images were analyzed with Carimas software (Turku PET Centre, Turku, Finland).
The excised brains containing tumors were frozen with liquid nitrogen, sectioned with a Leica CM3050S cryotome into alternating 20 and 8 µm slices on different slides for hematoxylin/eosin and future histochemical staining respectively. […] The slides were then stained with hematoxylin/eosin and digitally scanned with a Pannoramic 250 Flash slide scanner (3DHistech, Budapest, Hungary) Autoradiographs and light micrographs were then aligned in Carimas software (Turku PET Centre, Turku, Finland) and analyzed therein.

orthotopic BT4C gliomas = assay: Dynamic PET/CT imaging of orthotopic BT4C gliomas, tumor-to-healthy brain uptake ratio (TBR); format: in vivo; conditions: dynamic PET images, both cameras pooled, BT4C glioma-bearing BDIX rats
Protocol: The 16 glioma-bearing BDIX-Ifz rats (herein "BDIX") for imaging studies (8 weeks old, 9 males and 7 females) were anesthetized under 2-2.5% isoflurane and given buprenorphine (0.01 mg/kg) and carprofen (5 mg/kg) for analgesia during surgery. […] All animals were sacrificed after either the final imaging (PET studies) or the final blood sample collection (metabolism studies) under deep isoflurane anesthesia (4%) via cervical dislocation after cardiac puncture to collect terminal blood samples. […] The injected amount of radioactivity also varied based on camera and radionuclide. […] Each PET image was separately examined, in the initial 20 s of frames for the amino-acid-based radiopharmaceuticals and 40-60 min frames for [^18F]FDG, to manually delineate heart left ventricle cavity voxels to use as a blood radioactivity estimation region of interest (ROI). […] The dynamic PET image data was then extracted from each separate image and converted to standardized uptake values (SUV) which account for ROI volume, mean ROI radioactivity, subject weight, and total injected radioactivity dose (corrected for decay, residual syringe and cannula radioactivity). The results are shown as SUV ROI radioactivity curves over time as well as tumor-to-healthy brain region (TBR) ratios for improved comparisons. […]

With “2-deoxy-2-[^18F]fluoro-D-glucose [[^18F]FDG]” the “Tumor-to-healthy brain uptake ratio” value (BT4C gliomas) was 2.93 ± 0.57 and the “Average tumor-to-healthy brain tissue uptake ratio (TBR), maximum” value (orthotopic BT4C gliomas) was 1.41 ± 0.11.
